Earlier results as cited in patent publication US8592481B2 (Depomed, Inc., priority 2005, dated 2013).

Conditions: in vivo

1-(aminomethyl)cyclohexane acetic acid [gabapentin]
circulating gabapentin bound to plasma proteins: 3%
